Test results reported in patent publication US8138356B2, “Chemical inhibitors of inhibitors of differentiation” (Angiogeney, Inc., priority 2008, dated 2012).

Tests used:
Id1-E47 interaction = target: T1, Id1-E47 interaction (Homo sapiens, UniProt P41134); assay: Gel shift assay: E47 binding to MCK E-box oligonucleotide in the presence of Id1; type: biochemical
T1 sequence (P41134 1-155): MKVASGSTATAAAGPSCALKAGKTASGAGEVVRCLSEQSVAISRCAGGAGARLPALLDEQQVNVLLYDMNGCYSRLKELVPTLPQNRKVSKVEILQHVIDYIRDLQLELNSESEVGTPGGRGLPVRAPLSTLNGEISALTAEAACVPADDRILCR
Experimental: Gel shift assays were performed using the 376 small molecules identified in the in silico drug screen and peptide synthesis. The identified compounds were then dissolved in 5% DMSO to a concentration of 100 μm and reacted in binding mixtures that contained E47, Id1 and Mck. As controls, recombinant human E47 was used in a standard binding reaction that contained ^32P labeled MCK double stranded oligonucleotides containing consensus E-Box response element (MCK-5′ TTGATCCCCCCAACACCTGCTGCCTGAAGCT (SEQ ID NO. 1)) and 100 ng of Id1 was added to a standard binding reaction using E47 and p32 labeled MCK. After 30 minutes of incubation, the reaction mixtures were resolved on a 5% non-denaturing polyacrylamide gel and autoradiographed.

DU145 cells = assay: Cell survival/morphology by microscopy, DU145 prostate cancer cells; type: cell-based, human; details: concentration of 1 um (FIG. 6)
Experimental: Prostate cancer cell lines DU145 and PC3 (in 10% BCS) were obtained from American Type Culture Collection (Rockville, Md.). The cells were cultured in Ham's F12 (Gibco, Carlsbad, Calif.) medium containing 10% BCS (Hyclone, Logan, Utah) and appropriate antibiotics (pen/strep, fungizaone, and gentamycin (Invitrogen Inc., Carlsbad, Calif.). All cells were cultured at 37° C. in a fully humidified atmosphere containing 5% CO2.
At 50% confluence, the cells were treated with either 100 μM DMSO, 1000 mOsmol of urea+NaCL, 1 μM N-[3-(1,3-benzodioxol-5-yl)-3-(2-methoxyphenyl)propyl]-N-benzylpropanamide, 10 μM N-[3-(1,3-benzodioxol-5-yl)-3-(2-methoxyphenyl)propyl]-N-benzylpropanamide, and 100 μM N-[3-(1,3-benzodioxol-5-yl)-3-(2-methoxyphenyl)propyl]-N-benzylpropanamide, 1 μM N′-(4-isopropylphenyl)-1-benzothiophene-2-carbohydrazide, 10 μM N′-(4-isopropylphenyl)-1-benzothiophene-2-carbohydrazide, or 100 μM N′-(4-isopropylphenyl)-1-benzothiophene-2-carbohydrazide. The cell morphology and growth was monitored daily for 1 week by microscopy for changes in morphology or cell death. Apoptosis was determined by measuring caspase 3 and caspase 7 activities using the Caspase-Glo 3/7 Assay system from Promega (Madison, Wis.).

SMILES: CC(C)c1ccc(NNC(=O)c2cc3ccccc3s2)cc1 [N′-(4-isopropylphenyl)-1-benzothiophene-2-carbohydrazide]
- dose dependence of effect in the gel shift assay (Id1-E47 interaction): dose-proportionality
- anti-Id activity in the gel shift assay (shifted band of bound E47-MCK in the presence of Id1) (Id1-E47 interaction; compound 100 μm in 5% DMSO, E47, Id1 and MCK, 30 minutes): restore the binding between E47-MCK in the presence of Id1
- survival of DU145 cells (DU145 cells): able to induce cell death
